Results: paper PMC2837848 (Biochemistry, 2010)
Read-outs that look alike come from different tables or passages of the source.

How the values were obtained:
[1] = molecular target: QAPRTase (Salmonella typhimurium quinolinic acid phosphoribosyltransferase) (Salmonella enterica, UniProt P30012, H189A); assay: biochemical
[2] = molecular target: QAPRTase (Salmonella typhimurium quinolinic acid phosphoribosyltransferase) (Salmonella enterica, UniProt P30012); assay: steady-state kinetics; assay type: biochemical; conditions: read-out: WT
[3] = molecular target: QAPRTase (Salmonella typhimurium quinolinic acid phosphoribosyltransferase) (Salmonella enterica, UniProt P30012, R153A); assay: biochemical

Row | Compound | Kd [1] [µM] | Km ([2]; co-substrate QA) [µM] | Kd [3] [µM] | Km ([2]; co-substrate PRPP) [µM]
1 | O=P(O)(O)OC[C@H]1O[C@H](OP(=O)(O)OP(=O)(O)O)[C@H](O)[C@@H]1O [PRPP, 5-phosphoribosyl 1-pyrophosphate] | 480 ± 75 | 57 ± 7 | ~1000 | –
2 | O=C(O)c1cccnc1C(=O)O [QA, quinolinic acid] | – | – | – | 27 ± 6
